Measurements as given in ChEMBL document CHEMBL5724696, “Autophagy assay results for EUbOPEN Chemogenomics Library” (2024).

Experiments:
Assay type in all cases: functional, Homo sapiens
TERT-RPE1 = test: (§1) Here: values are normalized to the negative (DMSO; defined as 0% autophagy induction) and positive (250nM Torin1; mTOR inhibitor; defined as maximal inducer of autophagy = 100%) control compounds and represented as % of autophagy induction. […] The impact of autophagy induction on cells is complex and depends on the affected target. As such, the magnitude of a phenotype may not be equally mirrored in the %-value of autophagy induction and vice versa. The dynamics of the induction may indicate the mode of activation: e.g. activation via phosphorylation or a signaling cascade may occur fast, while activation via transcription factors may take considerably longer. […] Of note, treatment concentrations may be sub-optimal for specific compounds, leading to false negative annotations.; conditions: Culturing Media DMEM/F12 (1:1), 1 % Penicillin/Streptomycin, 10% Fetal bovin serum Add-On: No, Screening Media Control DMEM/F12 (1:1), Screening Media Samples DMEM/F12 (1:1)
U2OS [1] = test: as §1; conditions: Culturing Media DMEM, 1 % Penicillin/Streptomycin, 10% Fetal bovin serum Add-On: No, Screening Media Control DMEM, Screening Media Samples DMEM
U2OS [2] = test: as §1; conditions: Culturing Media DMEM, 1 % Penicillin/Streptomycin, 10% Fetal bovin serum Add-On: No, Screening Media Control DMEM, Screening Media Samples DMEM; remark: listed apart in the source
[3] = Compound Concentration 0.5 uM, Timepoint 12 hours
[4] = Compound Concentration 0.5 uM, Timepoint 24 hours
[5] = Compound Concentration 0.5 uM, Timepoint 36 hours
[6] = Compound Concentration 0.5 uM, Timepoint 60 hours
[7] = Compound Concentration 2 uM, Timepoint 12 hours
[8] = Compound Concentration 2 uM, Timepoint 24 hours
[9] = Compound Concentration 2 uM, Timepoint 36 hours
[10] = Compound Concentration 2 uM, Timepoint 60 hours
[11] = Compound Concentration 10 uM, Timepoint 12 hours
[12] = Compound Concentration 10 uM, Timepoint 24 hours
[13] = Compound Concentration 10 uM, Timepoint 36 hours
[14] = Compound Concentration 10 uM, Timepoint 60 hours

Work on `O=C1N/C(=N/c2ccccc2F)S/C1=C\c1ccc(C(=O)O)cc1` yielded an autophagy induction (TERT-RPE1; [3]) of -10.0262%, an autophagy induction (TERT-RPE1; [4]) of -9.4115% and an autophagy induction (TERT-RPE1; [5]) of -12.0012%. For the same compound, the autophagy induction (TERT-RPE1; [6]) was -17.4269%, the autophagy induction (TERT-RPE1; [7]) was -2.621% and the autophagy induction (TERT-RPE1; [8]) was -7.325%. It also gave an autophagy induction (TERT-RPE1; [9]) of -9.455%, an autophagy induction (TERT-RPE1; [10]) of -13.9846% and an autophagy induction (TERT-RPE1; [11]) of -9.926%. The autophagy induction (TERT-RPE1; [12]) was -10.0998%, the autophagy induction (TERT-RPE1; [13]) was -12.1834% and the autophagy induction (TERT-RPE1; [14]) was -11.0664%. For the same compound, the autophagy induction (U2OS [1]; [3]) was 1.731%, the autophagy induction (U2OS [1]; [4]) was 0.03156% and the autophagy induction (U2OS [1]; [5]) was -1.478%. It also gave an autophagy induction (U2OS [1]; [6]) of 0.04429%, an autophagy induction (U2OS [1]; [7]) of 4.489% and an autophagy induction (U2OS [1]; [8]) of 0.7124%. For the same compound, the autophagy induction (U2OS [1]; [9]) was -0.5769%, the autophagy induction (U2OS [1]; [10]) was 0.3402% and the autophagy induction (U2OS [1]; [11]) was -30.0859%. The autophagy induction (U2OS [1]; [12]) was -13.2121%, the autophagy induction (U2OS [1]; [13]) was -8.741% and the autophagy induction (U2OS [1]; [14]) was -4.602%. It also gave an autophagy induction (U2OS [2]; [3]) of -6.588%, an autophagy induction (U2OS [2]; [4]) of -6.026% and an autophagy induction (U2OS [2]; [5]) of -1.651%. For the same compound, the autophagy induction (U2OS [2]; [6]) was -8.214%, the autophagy induction (U2OS [2]; [7]) was 1.845% and the autophagy induction (U2OS [2]; [8]) was 3.048%. For the same compound, the autophagy induction (U2OS [2]; [9]) was 0.4254%, the autophagy induction (U2OS [2]; [10]) was -3.587% and the autophagy induction (U2OS [2]; [11]) was 7.038%. It also gave an autophagy induction (U2OS [2]; [12]) of 3.001%, an autophagy induction (U2OS [2]; [13]) of 3.146% and an autophagy induction (U2OS [2]; [14]) of -8.731%.
`CC(C)C[C@H](NC(=O)N1CCCCCC1)C(=O)N[C@H](Cc1cn(C)c2ccccc12)C(=O)N[C@H](Cc1ccccn1)C(=O)O` showed an autophagy induction (TERT-RPE1; [3]) of -9.746%, an autophagy induction (TERT-RPE1; [4]) of -10.9738% and an autophagy induction (TERT-RPE1; [5]) of -11.345%. The autophagy induction (TERT-RPE1; [6]) was -17.0217%, the autophagy induction (TERT-RPE1; [7]) was -8.2266% and the autophagy induction (TERT-RPE1; [8]) was -8.649%. The autophagy induction (TERT-RPE1; [9]) was -10.3216%, the autophagy induction (TERT-RPE1; [10]) was -11.9295% and the autophagy induction (TERT-RPE1; [11]) was -4.458%. The autophagy induction (TERT-RPE1; [12]) was -5.829%, the autophagy induction (TERT-RPE1; [13]) was -9.562% and the autophagy induction (TERT-RPE1; [14]) was -13.6367%. It also gave an autophagy induction (U2OS [1]; [3]) of 0.2891%, an autophagy induction (U2OS [1]; [4]) of 0.184% and an autophagy induction (U2OS [1]; [5]) of -1.273%. It also gave an autophagy induction (U2OS [1]; [6]) of 0.7204%, an autophagy induction (U2OS [1]; [7]) of 2.596% and an autophagy induction (U2OS [1]; [8]) of 1.655%. The autophagy induction (U2OS [1]; [9]) was -0.3512%, the autophagy induction (U2OS [1]; [10]) was -0.2043% and the autophagy induction (U2OS [1]; [11]) was 5.448%. For the same compound, the autophagy induction (U2OS [1]; [12]) was 0.3648%, the autophagy induction (U2OS [1]; [13]) was -0.3169% and the autophagy induction (U2OS [1]; [14]) was 1.561%. For the same compound, the autophagy induction (U2OS [2]; [3]) was 4.132%, the autophagy induction (U2OS [2]; [4]) was 4.485% and the autophagy induction (U2OS [2]; [5]) was 3.039%. For the same compound, the autophagy induction (U2OS [2]; [6]) was -0.6751%, the autophagy induction (U2OS [2]; [7]) was 3.762% and the autophagy induction (U2OS [2]; [8]) was 6.744%. It also gave an autophagy induction (U2OS [2]; [9]) of 4.273%, an autophagy induction (U2OS [2]; [10]) of 0.0386% and an autophagy induction (U2OS [2]; [11]) of 4.084%. For the same compound, the autophagy induction (U2OS [2]; [12]) was 1.596%, the autophagy induction (U2OS [2]; [13]) was 3.219% and the autophagy induction (U2OS [2]; [14]) was 5.8133%.
`COC1CCN(c2cccc(-c3cc(NC(C)=O)nc(-n4nc(C)cc4C)n3)n2)CC1` was tested, and the autophagy induction (TERT-RPE1; [3]) was -7.33%, the autophagy induction (TERT-RPE1; [4]) was -8.964% and the autophagy induction (TERT-RPE1; [5]) was -12.5665%. It also gave an autophagy induction (TERT-RPE1; [6]) of -12.2397%, an autophagy induction (TERT-RPE1; [7]) of -1.032% and an autophagy induction (TERT-RPE1; [8]) of 0.9672%. The autophagy induction (TERT-RPE1; [9]) was 2.277%, the autophagy induction (TERT-RPE1; [10]) was 7.2174% and the autophagy induction (TERT-RPE1; [11]) was 3.426%. It also gave an autophagy induction (TERT-RPE1; [12]) of 13.112%, an autophagy induction (TERT-RPE1; [13]) of 27.8595% and an autophagy induction (TERT-RPE1; [14]) of 52.8636%. The autophagy induction (U2OS [1]; [3]) was 2.5303%, the autophagy induction (U2OS [1]; [4]) was -0.8923% and the autophagy induction (U2OS [1]; [5]) was -0.9403%. The autophagy induction (U2OS [1]; [6]) was 0.4833%, the autophagy induction (U2OS [1]; [7]) was 5.065% and the autophagy induction (U2OS [1]; [8]) was 2.721%. The autophagy induction (U2OS [1]; [9]) was -0.07864%, the autophagy induction (U2OS [1]; [10]) was -0.6053% and the autophagy induction (U2OS [1]; [11]) was 7.172%. It also gave an autophagy induction (U2OS [1]; [12]) of -0.05151%, an autophagy induction (U2OS [1]; [13]) of 0.1867% and an autophagy induction (U2OS [1]; [14]) of -2.376%. For the same compound, the autophagy induction (U2OS [2]; [3]) was 34.4556%, the autophagy induction (U2OS [2]; [4]) was 27.7724% and the autophagy induction (U2OS [2]; [5]) was 24.8838%. For the same compound, the autophagy induction (U2OS [2]; [6]) was 23.4921%, the autophagy induction (U2OS [2]; [7]) was -5.934% and the autophagy induction (U2OS [2]; [8]) was -0.6278%. It also gave an autophagy induction (U2OS [2]; [9]) of -1.762%, an autophagy induction (U2OS [2]; [10]) of -0.9306% and an autophagy induction (U2OS [2]; [11]) of -4.754%. For the same compound, the autophagy induction (U2OS [2]; [12]) was 3.79%, the autophagy induction (U2OS [2]; [13]) was 9.047% and the autophagy induction (U2OS [2]; [14]) was 19.3391%.
